What was measured:
rat TRPV1 [1] = biological target: T1, rat TRPV1 (Rattus norvegicus, UniProt O35433); test: biochemical; format: binding
rat TRPV1 [2] = biological target: T1, rat TRPV1; conditions: for decrease in agonism on replacing or removing the 3-methoxy group of compound 1: comparator not given
[3] = test system: transient receptor potential vanilloid 1 (TRPV1) channel; conditions: cited from earlier work
[4] = cited from earlier work
TRPV1 = conditions: cited from earlier work

T1 sequence (O35433 whole entry): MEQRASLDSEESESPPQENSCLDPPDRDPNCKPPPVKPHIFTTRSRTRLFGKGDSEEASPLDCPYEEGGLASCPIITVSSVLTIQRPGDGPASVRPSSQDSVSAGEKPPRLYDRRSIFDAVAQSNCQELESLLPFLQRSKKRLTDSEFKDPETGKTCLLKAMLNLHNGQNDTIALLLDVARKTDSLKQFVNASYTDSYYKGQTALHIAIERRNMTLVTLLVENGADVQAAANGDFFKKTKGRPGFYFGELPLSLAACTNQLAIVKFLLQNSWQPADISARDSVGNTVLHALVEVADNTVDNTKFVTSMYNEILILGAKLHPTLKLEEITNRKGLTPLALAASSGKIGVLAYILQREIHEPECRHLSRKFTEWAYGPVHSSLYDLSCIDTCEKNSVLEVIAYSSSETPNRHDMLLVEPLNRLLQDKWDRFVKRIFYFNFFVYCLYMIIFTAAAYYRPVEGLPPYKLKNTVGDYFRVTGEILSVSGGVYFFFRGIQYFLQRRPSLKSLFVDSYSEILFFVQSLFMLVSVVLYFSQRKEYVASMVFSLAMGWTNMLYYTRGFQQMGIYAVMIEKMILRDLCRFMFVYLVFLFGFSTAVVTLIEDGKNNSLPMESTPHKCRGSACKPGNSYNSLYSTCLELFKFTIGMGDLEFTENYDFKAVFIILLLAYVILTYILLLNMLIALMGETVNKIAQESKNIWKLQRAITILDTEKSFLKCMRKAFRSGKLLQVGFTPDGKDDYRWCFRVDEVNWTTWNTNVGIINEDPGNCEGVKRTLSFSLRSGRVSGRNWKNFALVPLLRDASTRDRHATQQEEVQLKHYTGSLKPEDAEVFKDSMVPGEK

In the case of `C=C(C)[C@@]12C[C@@H](C)[C@@]34OC(Cc5ccccc5)(O[C@@H]1[C@@H]3C=C(COC(=O)Cc1ccc(NS(C)(=O)=O)c(OC)c1)C[C@]1(O)C(=O)C(C)=C[C@@H]41)O2` [Compound 1, 3-Methoxy-4-(methylsulfonylamino) analogue], the “reduction in binding affinity compared to RTX” value (rat TRPV1 [1]) is reported as 5 fold and the “enhancement of functional activity (agonism) compared to RTX” value (rat TRPV1 [2]) is reported as 2.5 fold.

With `C=C(C)[C@@]12C[C@@H](C)[C@@]34OC(Cc5ccccc5)(O[C@@H]1[C@@H]3C=C(COC(=O)Cc1ccc(NS(C)(=O)=O)c(F)c1)C[C@]1(O)C(=O)C(C)=C[C@@H]41)O2` [Compound 2, 3-Fluoro-4-(methylsulfonylamino) analogue] the “decrease in agonism on replacing or removing the 3-methoxy group of compound 1” value (rat TRPV1 [2]) was 9 fold.

With `C=C(C)[C@@]12C[C@@H](C)[C@@]34OC(Cc5ccccc5)(O[C@@H]1[C@@H]3C=C(COC(=O)Cc1ccc(NS(C)(=O)=O)cc1)C[C@]1(O)C(=O)C(C)=C[C@@H]41)O2` [Compound 3, 4-(Methylsulfonylamino) analogue] the “decrease in agonism on replacing or removing the 3-methoxy group of compound 1” value (rat TRPV1 [2]) was 7 fold.

In the case of `C=C(C)[C@@]12C[C@@H](C)[C@@]34OC(Cc5ccccc5)(O[C@@H]1[C@@H]3C=C(COC(=O)Cc1ccccc1F)C[C@]1(O)C(=O)C(C)=C[C@@H]41)O2` [Compound 4, 2-Fluoro analogue], the Ki (rat TRPV1 [1]) is reported as 730 pM.

In the case of `C=C(C)[C@@]12C[C@@H](C)[C@@]34OC(Cc5ccccc5)(O[C@@H]1[C@@H]3C=C(COC(=O)Cc1ccc(F)cc1F)C[C@]1(O)C(=O)C(C)=C[C@@H]41)O2` [Compound 8, 2,4-Difluoro analogue], the “relative agonism compared to RTX” value (rat TRPV1 [2]; compared to RTX) is reported as 0.15.

With `C=C(C)[C@@]12C[C@@H](C)[C@@]34OC(Cc5ccccc5)(O[C@@H]1[C@@H]3C=C(COC(=O)Cc1cc(F)ccc1F)C[C@]1(O)C(=O)C(C)=C[C@@H]41)O2` [Compound 9, 2,5-Difluoro analogue] the “relative affinity compared to RTX” value (rat TRPV1 [1]; compared to RTX) was 0.1.

For `C=C(C)[C@@]12C[C@@H](C)[C@@]34OC(Cc5ccccc5)(O[C@@H]1[C@@H]3C=C(CNC(=O)Cc1ccc(NS(C)(=O)=O)cc1)C[C@]1(O)C(=O)C(C)=C[C@@H]41)O2` [Compound 14, Amide analogue], the “drop in binding, amide versus ester compound 3” value (rat TRPV1 [1]; compared to compound 3) was 50 fold and the “drop in agonism, amide versus ester compound 3” value (rat TRPV1 [2]; compared to compound 3) was 210 fold.

For `C=C(C)[C@]12C[C@@H](C)[C@@]34O[C@](Cc5ccccc5)(O[C@@H]1[C@@H]3C=C(COC(=O)Cc1ccc(O)c(OC)c1)C[C@]1(O)C(=O)C(C)=C[C@@H]41)O2` [RTX, Resiniferatoxin], the “greater potency than the prototypic agonist capsaicin” value [3] is listed as 10^3- to 10^4 fold.

In the case of `C=C(C)[C@]12C[C@@H](C)[C@@]34O[C@](Cc5ccccc5)(O[C@@H]1[C@@H]3C=C(COC(=O)Cc1ccc(O)cc1)C[C@]1(O)C(=O)C(C)=C[C@@H]41)O2` [tinyatoxin], the “loss of biological potency compared to RTX” value [4] is given as 6 fold and the “decrease in binding potency compared to RTX” value (TRPV1) is given as 3 fold.
